In one data set the target is T1, RAR α (Homo sapiens, UniProt P10276).
T1 sequence (P10276 1-462): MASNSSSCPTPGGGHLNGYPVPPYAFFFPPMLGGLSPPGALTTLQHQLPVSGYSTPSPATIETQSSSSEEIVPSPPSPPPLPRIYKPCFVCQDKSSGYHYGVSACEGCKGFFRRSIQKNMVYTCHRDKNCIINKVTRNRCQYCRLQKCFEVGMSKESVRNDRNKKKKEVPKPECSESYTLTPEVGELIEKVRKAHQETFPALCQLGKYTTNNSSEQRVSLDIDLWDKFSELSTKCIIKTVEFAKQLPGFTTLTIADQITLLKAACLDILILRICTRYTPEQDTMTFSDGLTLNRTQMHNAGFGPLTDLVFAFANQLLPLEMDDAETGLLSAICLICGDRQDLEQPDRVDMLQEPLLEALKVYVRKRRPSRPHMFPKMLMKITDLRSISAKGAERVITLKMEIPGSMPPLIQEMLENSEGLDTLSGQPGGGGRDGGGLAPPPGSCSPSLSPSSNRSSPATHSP
The experiment in a line: Ligand binding assay, retinoic acid receptor α. The note with it: first value of α/β/γ cell. An excerpt: (§1) The retinoic acid receptor agonist selectivity of a compound of the invention may be determined by using ligand binding assays known to the skilled artisan (Apfel et al., Proc. Natl. Acad. Sci., 1992, 89, 7129; Teng et al., J. Med. Chem., 1997, 40, 2445; Bryce et al., U.S. Pat. No. 5,807,900 which are herein incorporated by reference). Treatment with RAR agonists, particularly RAR γ agonists may promote repair of alveolar matrix and septation, which are in important in treating emphysema. It should be noted that RAR agonists that are not γ selective may be effective in treating emphysema
(§2) The retinoic acid receptor agonist selectivity of a compound of the invention may be determined by using ligand binding assays known to the skilled artisan (Apfel et al., Proc. Natl. Acad. Sci., 1992, 89, 7129; Teng et al., J. Med. Chem., 1997, 40, 2445; Bryce et al., U.S. Pat. No. 5,807,900 which are herein incorporated by reference). Treatment with RAR agonists, particularly RAR γ agonists may promote repair of alveolar matrix and septation, which are in important in treating emphysema It should be noted that RAR agonists that are not γ selective may be effective in treating emphysema.

A further data set addresses T2, RAR β (Homo sapiens, UniProt P10826).
T2 sequence (P10826 1-455): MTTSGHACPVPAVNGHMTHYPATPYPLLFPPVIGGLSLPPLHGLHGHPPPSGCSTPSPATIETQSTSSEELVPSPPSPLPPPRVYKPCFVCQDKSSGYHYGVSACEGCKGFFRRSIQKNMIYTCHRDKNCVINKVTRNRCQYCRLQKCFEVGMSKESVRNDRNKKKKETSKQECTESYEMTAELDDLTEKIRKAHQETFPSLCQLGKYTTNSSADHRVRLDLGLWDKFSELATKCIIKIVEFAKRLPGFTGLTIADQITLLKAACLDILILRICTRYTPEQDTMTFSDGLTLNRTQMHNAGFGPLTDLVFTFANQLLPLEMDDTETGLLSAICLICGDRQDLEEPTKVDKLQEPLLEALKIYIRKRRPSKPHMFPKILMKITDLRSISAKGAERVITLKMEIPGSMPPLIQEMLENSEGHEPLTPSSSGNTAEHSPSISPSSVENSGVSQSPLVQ
The experiment in a line: Ligand binding assay, retinoic acid receptor β. The note with it: second value of α/β/γ cell.
Text: as §1, §2

The target in another data set is T3, RAR γ (Homo sapiens, UniProt P13631).
T3 sequence (P13631 1-454): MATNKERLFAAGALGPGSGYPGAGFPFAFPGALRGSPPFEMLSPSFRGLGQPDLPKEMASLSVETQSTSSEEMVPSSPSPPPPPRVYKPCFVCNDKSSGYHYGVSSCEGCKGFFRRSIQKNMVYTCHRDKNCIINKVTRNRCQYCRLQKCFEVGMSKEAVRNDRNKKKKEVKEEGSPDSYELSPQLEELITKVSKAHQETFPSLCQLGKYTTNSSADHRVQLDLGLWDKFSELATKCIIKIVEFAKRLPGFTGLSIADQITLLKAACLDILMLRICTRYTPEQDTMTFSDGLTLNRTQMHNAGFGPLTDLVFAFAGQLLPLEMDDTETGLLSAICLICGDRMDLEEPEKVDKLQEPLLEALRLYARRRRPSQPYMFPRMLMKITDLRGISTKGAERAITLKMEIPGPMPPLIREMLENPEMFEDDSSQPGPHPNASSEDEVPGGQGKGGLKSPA
The experiment in a line: Ligand binding assay, retinoic acid receptor γ. The note with it: third value of α/β/γ cell.
Text: as §1, §2

Data set [1] relates to rat model of elastase-induced emphysema. The data set is described as follows: Alveolar repair in rat model of elastase-induced emphysema. It counts as in vivo, male Sprague Dawley rats. As to conditions: once per day starting 21 days post elastase injury, relative to elastase+vehicle group. From the text:
Compounds of the invention may be evaluated for their effects on alveolar repair in the rat model of elastase-induced emphysema (Massaro et al., Nature, 1997, Vol. 3, No. 6: 675; Massaro et al., U.S. Pat. No. 5,998,486). Preferably, animals are divided into treatment groups of approximately eight. Lung inflammation and alveolar damage may be induced in male Sprague Dawley rats by a single instillation of about 2 U/gram body mass of pancreatic elastase (porcine derived, Calbiochem).
Animals may be treated with a compound of the invention formulated Miglyol at convenient oral dosage ranges (preferably, between about 10.0 mg/kg and 0.0001 mg/kg) and will be dosed orally once per day starting 21 days post injury. Control groups are challenged with elastase and 21 days later are treated with vehicle (Miglyol) for 14 days. Animals were sacrificed 24 hours after the last dose by exsanguination under deep anesthesia. Blood was collected at time of exsanguination for analysis.
The lungs are inflated with 10% neutral buffered formalin by intratracheal instillation at a constant rate (1 ml/gram body mass/min). The lung is excised and immersed in fixative for 24 hours prior to processing. Standard methods were used to prepare 5 μm paraffin sections. Sections were stained with Hematoxylin and Eosin. Alveolar measurements were made in four regions of the lung/rat by Computerized Morphometric analysis. The mean value/treatment group may be determined by summing the average area/rat for all eight rats/treatment groups and repair of elastase damage expressed as percentage of repair relative to the elastase+vehicle treated group from the following calculation: […]

A value given as a limit tells only on which side of the number the result lay.

A word on the IC50: it is the point on the concentration scale where inhibition reaches its midpoint. Read a high IC50 as a need for much substance. The term melting point denotes the temperature of the solid-liquid transition. Take `CCCCCC(COc1ccc(C(=O)O)cc1)c1ccc2c(c1)OCCC2(C)C` (racemic) [Example 5.1, 4-[2-(4,4-dimethyl-chroman-7-yl)-heptyloxy]-benzoic acid]: the melting point was 91.5 to 93.3 °C. The same compound came in with an IC50 on RAR α of 3920 nM. The IC50 at RAR β amounted to 3160 nM. Moreover, the IC50 at RAR γ worked out at 3770 nM.
`CCCCCC(COc1ccc(C(=O)O)cc1)c1ccc2c(c1)SCCC2(C)C` (racemic) [Example 5.2, 4-[2-(4,4-dimethyl-thiochroman-7-yl)-heptyloxy]-benzoic acid] came in with a melting point of 123 to 123.5 °C. Besides, at RAR α, the IC50 was determined as 2070 nM. The compound also gave an IC50 at RAR β of 3010 nM. The same compound gave an IC50 on RAR γ of 3230 nM.
Consider `CCCCCC(/C=C/c1ccc(C(=O)O)cc1)c1ccc2c(c1)OCCC2(C)C` (racemic) [Example 5.3, 4-[3-(4,4-dimethyl-chroman-7-yl)-oct-1-enyl]-benzoic acid], for which the IC50 at RAR α is 6920 nM; at RAR β, 2920 nM; on RAR γ it was 3870 nM.
In the same order, the values of `CCCCCC(/C=C/c1ccc(C(=O)O)cc1)c1ccc2c(c1)SCCC2(C)C` (racemic) [Example 5.4, 4-[3-(4,4-dimethyl-thiochroman-7-yl)-oct-1-enyl]-benzoic acid] are 1580 nM, 1490 nM and 2330 nM.
Take `CCCCCC(/C=C/c1ccc(C(=O)O)cc1)c1ccc2c(c1)N(C)CCC2(C)C` (racemic) [Example 5.5, 4-[3-(1,4,4-trimethyl-1,2,3,4-tetrahydro-quinolin-7-yl)-oct-1-enyl]-benzoic acid]: the IC50 at RAR α came out at 1460 nM; at RAR β, 1940 nM; at RAR γ it was 1420 nM. Moreover, the “% Alveolar repair” value was 65% in data set [1] (dose 1 μg/kg p.o.), 54% in data set [1] (dose 10 μg/kg p.o.) and 60.9% in data set [1] (dose 100 μg/kg p.o.).
As to `CCCCCC(/C=C/c1ccc(C(=O)O)cc1)c1ccc2c(c1)N(CC)CCC2(C)C` (racemic) [Example 5.6, 4-[3-(1-ethyl4,4-dimethyl-1,2,3,4-tetrahydro-quinolin-7-yl)-oct-1-enyl]-benzoic acid], the IC50 on RAR α turned out to be 1280 nM; on RAR β, 1470 nM; on RAR γ it was 1000 nM.
For the compound `CCC(/C=C/c1ccc(C(=O)O)cc1)c1ccc2c(c1)N(C)CCC2(C)C` (racemic) [Example 5.7, 4-[3-(1,4,4-trimethyl-1,2,3,4-tetrahydro-quinolin-7-yl)-pent-1-enyl]-benzoic acid], the IC50 is 3390 nM at RAR α, 1050 nM on RAR β and greater than 10000 nM at RAR γ.
Regarding `CCCCCC(/C=C/c1ccc(C(=O)O)cc1)c1ccc2c(c1)NCCC2(C)C` (racemic) [Example 5.10, 4-[3-(4,4-dimethyl-1,2,3,4-tetrahydro-quinolin-7-yl)-oct-1-enyl]-benzoic acid], the IC50 at RAR α came to 5140 nM; at RAR β it was 8270 nM; at RAR γ, 6390 nM.
With `CCCCCC(/C=C/c1ccc(C(=O)O)cc1F)c1ccc2c(c1)N(C)CCC2(C)C` (racemic) [Example 5.11, 3-fluoro-4-[3-(1,4,4-trimethyl-1,2,3,4-tetrahydro-quinolin-7-yl)-oct-1-enyl]-benzoic acid], the results for the IC50 on RAR α, on RAR β and at RAR γ were 6290 nM, 3260 nM and 4060 nM, respectively.
For the compound `CCCCCC(COc1ccc(C(=O)O)cc1)c1ccc2c(c1)N(C)CCC2(C)C` (racemic) [Example 5.12, 4-[2-(1,4,4-trimethyl-1,2,3,4-tetrahydro-quinolin-7-yl)-heptyloxy]-benzoic acid], the IC50 at RAR α was 3170 nM; on RAR β, 4150 nM; at RAR γ, 5440 nM.
As for `CCCCCC(COc1ccc(C(=O)O)cc1)c1ccc2c(c1)N(CC)CCC2(C)C` (racemic) [Example 5.13, 4-[2-(1-ethyl4,4-dimethyl-1,2,3,4-tetrahydro-quinolin-7-yl)-heptyloxy]-benzoic acid], the IC50 is 2520 nM at RAR α, 3130 nM at RAR β and 3600 nM at RAR γ.
